Measured values as given in US9040717B2, “Pyrazole-amide compounds and pharmaceutical use thereof” (JAPAN TOBACCO INC., priority 2013, dated 2015).

Columns and labels:
human PDHK1 (hPDHK1) = human PDHK1 (hPDHK1) (Homo sapiens (Human), UniProt Q15118); experiment: Inhibitory action of PDHK1 activity in vitro (residual PDH activity after kinase reaction); format: biochemical
Description: (§1) The inhibitory action of PDHK activity was assessed indirectly by measuring the residual PDH activity after kinase reaction in the presence of a test compound.
The recombinant construct was transformed into Escherichia coli (DH5α-TOYOBO). The recombinant clones were identified, and plasmid DNA was isolated and subjected to the DNA sequence analysis. One clone which had the expected nucleic acid sequence was selected for expression work.
The Escherichia coli were grown to an optical density 0.6 ([…]) at 30° C. Protein expression was induced by the addition of 500 μmol/L isopropyl-β-thiogalactopyranoside. The Escherichia coli were cultured at 30° C. for 5 hr and harvested by centrifugation. Resuspension of the Escherichia coli paste was disrupted by a microfluidizer.
The eluted fractions containing FLAG-Tagged protein were pooled, dialyzed against 20 mmol/L HEPES-NaOH, 150 mmol/L sodium chloride, 0.5 mmol/L ethylenediamine tetraacetic acid (EDTA), 1% ethylene glycol, and 0.1% Pluronic F-68 (pH 8.0), and preserved at −80° C.
The mixture was incubated at room temperature for 90 min, and the residual PDH activity was measured.
The absorbance at 340 nm before and after PDH reaction was measured using a microplate reader to detect NADH produced by the PDH reaction.

human PDHK2 (hPDHK2) = human PDHK2 (hPDHK2) (Homo sapiens (Human), UniProt Q15119); experiment: Inhibitory action of PDHK2 activity in vitro (residual PDH activity after kinase reaction); format: biochemical
Description: as §1
In the case of human PDHK2 (hPDHK2, Genbank Accession No. BC040478.1), modified hPDHK2 cDNA wherein FLAG-Tag sequence was added to the N terminus of hPDHK2 cDNA clone (pReceiver-M01/PDK2-GeneCopoeia) was prepared by PCR and cloned into a vector (pET17b-Novagen). The recombinant construct was transformed into Escherichia coli (DH5α-TOYOBO). The recombinant clones were identified, and plasmid DNA was isolated and subjected to the DNA sequence analysis. One clone which had the expected nucleic acid sequence was selected for expression work.
For expression of hPDHK2 activity, Escherichia coli strain BL21(DE3) cells (Novagen) were transformed with the pET17b vector containing modified hPDHK2 cDNA. The Escherichia coli were grown to an optical density 0.6 ([…]) at 30° C. Protein expression was induced by the addition of 500 μmol/L isopropyl-β-thiogalactopyranoside. The Escherichia coli were cultured at 30° C. for 5 hr and harvested by centrifugation. Resuspension of the Escherichia coli paste was disrupted by a microfluidizer. FLAG-Tagged protein was purified using FLAG affinity gel. […]
0.05 U/mL PDH and 0.8 μg/mL hPDHK2 were mixed in a buffer (50 mmol/L 3-morpholinopropanesulfonic acid (pH 7.0), 20 mmol/L dipotassium hydrogen phosphate, 60 mmol/L potassium chloride, 2 mmol/L magnesium chloride, 0.4 mmol/L EDTA, and 0.2% Pluronic F-68, 2 mmol/L dithiothreitol), and the mixture was incubated at 4° C. overnight to obtain a PDH/hPDHK2 complex. […] The mixture was incubated at room temperature for 90 min, and the residual PDH activity was measured. The absorbance at 340 nm before and after PDH reaction was measured using a microplate reader to detect NADH produced by the PDH reaction. The hPDHK2 inhibition rate (%) of the test compound was calculated from the formula [{(PDH activity of test compound−PDH activity of control)/PDH activity of blank−PDH activity of control)}×100].

[1] = tested on: Zucker Diabetic Fatty rats; experiment: Effect of repeated administration on HbA1c in ZDF rats; format: in vivo, rat; conditions: 1 mg/kg oral once daily, day 14 of administration, mean ± S.D. (n = 10), *p < 0.05 vs. vehicle group
Description: Zucker Diabetic Fatty rats (male, 7-week-old, CHARLES RIVER LABORATORIES JAPAN INC.), an animal model for type 2 diabetes, given a purified diet (5.9% fat diet, Oriental Yeast Co., Ltd.) were allocated to the vehicle group and the test compound groups so that no bias occurred in the plasma glucose and insulin levels, HbAlc levels and body weights. Repeated oral doses of the test compound (1 mg/kg/5 mL) were administered to the rats once daily at 3 hr before the dark period. A 0.5% aqueous methylcellulose solution was orally administered in the same manner to the rats of the vehicle group. On day 14 of administration, blood samples were collected from the tail vein and HbAlc level (%) was measured. Statistical analysis was performed by Dunnett's test. Values of p<0.05 were cosidered statistically significant.

Sequence of human PDHK1 (hPDHK1) (Q15118 29-436): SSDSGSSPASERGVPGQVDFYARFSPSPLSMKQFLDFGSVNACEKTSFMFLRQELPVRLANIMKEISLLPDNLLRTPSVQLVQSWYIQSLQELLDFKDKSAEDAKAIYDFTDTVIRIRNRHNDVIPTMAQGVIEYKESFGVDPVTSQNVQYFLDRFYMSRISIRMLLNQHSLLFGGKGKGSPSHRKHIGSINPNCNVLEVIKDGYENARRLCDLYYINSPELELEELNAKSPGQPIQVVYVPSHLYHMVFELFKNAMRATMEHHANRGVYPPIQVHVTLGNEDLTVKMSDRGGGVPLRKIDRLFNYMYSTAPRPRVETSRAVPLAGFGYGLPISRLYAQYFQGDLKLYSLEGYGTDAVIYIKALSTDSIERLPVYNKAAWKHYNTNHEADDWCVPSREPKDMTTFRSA

Structure (SMILES)	IC50 (human PDHK1 (hPDHK1)) [nM]	IC50 (human PDHK2 (hPDHK2)) [nM]	HbA1c (%) [1]
CC(C)(O)CCOc1cc(-c2cnn(C(C)(C)C(N)=O)c2)c2c(c1)[C@@](O)(C(F)(F)F)c1ccccc1-2 [Compound (2), 2-{4-[(9R)-9-hydroxy-2-(3-hydroxy-3-methylbutyloxy)-9-(trifluoromethyl)-9H-fluoren-4-yl]-1H-pyrazol-1-yl}-2-methylpropanamide]	4.7	4.6	3.2 ± 0.1* %
CC(C)(O)CCCOc1cc(-c2cnn(C(C)(C)C(N)=O)c2)c2c(c1)[C@@](O)(C(F)(F)F)c1ccccc1-2 [Compound (3), 2-{4-[(9R)-9-hydroxy-2-(4-hydroxy-4-methylpentyloxy)-9-(trifluoromethyl)-9H-fluoren-4-yl]-1H-pyrazol-1-yl}-2-methylpropanamide]	3.5	4.2	3.4 ± 0.1* %
